Results on eleven compounds are retold here after US20250215016A1, “ISOXAZOLE-HETEROCYCLIC DERIVATIVE, PHARMACEUTICAL COMPOSITION AND USE” (SHANGHAI SIMR BIOTECHNOLOGY CO., LTD, priority 2022, published 2025).

One may read the Ki as the dissociation constant of the complex between target and ligand, obtained from inhibition or displacement. High values mean weaker binding, low ones tighter binding.

The target in one experiment is α5-GABAA receptor (Homo sapiens (Human), UniProt P18507+P31644). Kind of experiment: Whole-cell patch clamp electrophysiology, inverse regulation activity in α5β3γ2-HEK293 cells. In kind it is cell-based. To be noted: compound 100 nM; GABA 0.05-0.06 μM (about EC7-8); clamped at −60 mV; read-out: Inverse regulation efficiency to α5-GABAA receptor. The source says: α, β and γ subunits are essential for the formation of a complete functional GABAA receptor. […] The specific subunit protein sequences are as follows: α5 subunit (protein sequence can be found in GenBank accession number: NM_000810.3); α2 subunit (protein sequence can be found in GenBank accession number: NM_000807.4); β3 subunit (protein sequence can be found in GenBank accession number: NM_000814.5); γ2 subunit (protein sequence can be found in GenBank accession number: NM_000816.3).
(§1) The above cell lines were subcultured. Amplification of α5β3γ2-HEK293 and α2β3γ2-HEK293 cells was used to test the affinity of the compounds to benzodiazepine site (BZD) of the GABAA receptor. During the passage of α5β3γ2-HEK293 cells, some of the suspended cells were spread on a glass slide pretreated with Poly-D-Lysine for electrophysiological testing.
The inverse regulation activity of the test drugs on α5-GABAA receptor was detected by an electrophysiological method. The specific method was as follows:
Compound concentration setting: the final concentration of the compounds used for compound screening was 100 nM. GABA concentration was 0.05-0.06 μM (about EC7-8). […] The extracellular fluid (ECS) ingredients for electrophysiology were as follows: 150 mM NaCl, 5 mM KCl, 2.5 mM CaCl2, 1 mM MgCl2, 10 mM HEPES and 10 mM glucose (pH 7.4); the electrode internal solution (ICS) formula for electrophysiology was as follows: 140 mM CsCl, 11 mM EGTA, 10 mM HEPES, 2 mM CaCl2, 1 mM MgCl2, 4 mM MgATP, 2 mM TEA (pH 7.3). The above reagents were all purchased from Sigma aldrich. GABA (γ-aminobutyric acid, from sigma aldrich, lot: A5385) powder was prepared into a stock solution with pure water and then diluted in ECS. The compound was first prepared into a 4 mM stock solution with DMSO, and then gradually diluted in corresponding concentrations of GABA-ECS. The solutions were all prepared fresh prior to electrophysiological testing.
Electrophysiological signal acquisition were performed by using EPC 10 amplifier and PatchMaster software (HEKA) or Axon 700 B amplifier and Clampex software (AXON). The recording electrode was made by drawing borosilicate glass (purchased from sutter), and has an electrode resistance of 4˜6 MΩ. Extracellular administration was carried out using ALA-VC-8PG (purchased from ALA, USA) system. A single independently grown cell was selected, and lysis was performed after the glass electrode and the cell forming a good seal, to form a whole cell mode. With the cellular membrane potential clamped at −60 mV, recording was carried out in the Gap-free mode. For the test, extracellular fluid was first applied extracellularly for about 20 seconds. After baseline (Iprebaseline) was stabilized, the extracellular fluid was switched to GABA-ECS. At this time, the current (Igaba) caused by GABA can be detected. At about 20-40 seconds, after the current stabilized, the extracellular fluid was switched to a mixed solution of the compound and GABA-ECS, until the current (Itreatment) caused by both the compound and GABA can be detected. Finally, the solution was switched to the extracellular fluid and the test was terminated after recording for 20-40 seconds.
The experimental results were analyzed using PatchMaster v2x90.1 or PatchMaster v2x90.3 software (EPC 10 amplifier) and Clampex10.6 software (Axon700B amplifier). The current value of each stage was calculated according to the average value of the stabilized current under the corresponding conditions. We defined the control current as Igaba−Iprebaseline, and the current after compound treatment as Itreatment−Iprebaseline. The inverse regulation activity of the compounds is expressed as a percentage and is calculated according to the following formula: Inverse regulation efficiency=[(Itreatment−Igaba)/(Igaba−Iprebaseline)]×100%.
Background: In patch-clamp work, channel activity is measured electrically.

Experiment [1] concerns the target human α5β3γ2 receptor (α5-GABAA receptor) (Homo sapiens (Human), UniProt P18507+P31644). The experiment in a line: Radioligand (3H-flunitrazepam) competition binding assay, BZD site. To be noted: 3H-flunitrazepam 1 nM; HEK293 membranes expressing human α5β3γ2.
Text: α, β and γ subunits are essential for the formation of a complete functional GABAA receptor. In this example, HEK293 cell strains stably expressing human α5-GABAA receptor (comprising α5β3γ2 subunit) and α2-GABAA receptor (comprising α2β3γ2 subunit) were constructed and screened, respectively, by liposome transfection method (Felgner, P. L., et al., Proceedings of the National Academy of Sciences, 1987, 84:7413-7417). The specific subunit protein sequences are as follows: α5 subunit (protein sequence can be found in GenBank accession number: NM_000810.3); α2 subunit (protein sequence can be found in GenBank accession number: NM_000807.4); β3 subunit (protein sequence can be found in GenBank accession number: NM_000814.5); γ2 subunit (protein sequence can be found in GenBank accession number: NM_000816.3).
as §1
Flunitrazepam is a non-specific reagent that binds to the BZD site efficiently. The affinity of the compounds to the BZD sites of the human α5β3γ2 and α2β3γ2 receptors can be determined by competing the compound with ^3H-flunitrazepam (isotope ^3H-labeled flunitrazepam) for binding to these two receptors.
Membrane preparation: HEK293 cells stably expressing human α5β3γ2 receptor or α2β3γ2 receptor were collected, suspended in 50 mM Tris-HCl buffer (pH=7.4), homogenized on ice by a homogenizer for 20 seconds 10 times, and centrifuged at 4° C., 1000 g for 10 min. The supernatant was collected, and the above steps were repeated. The supernatant was centrifuged (33800 g; centrifuge purchased from Thermo, rotor model: A27-8×50) at 4° C. for 60 min, and the precipitate was resuspended in Tris buffer (50 mM Tris-HCl, 10 mM MgCl2, 0.5 mM EDTA, 10% glycerol). The precipitate was the cell membrane. Protein content was determined by BCA (Bicinchoninic Acid) method (BCA kit from Pierce (Annoron)). The cell membrane was prepared into 1 ml aliquot and stored at −80° C.
Radioligand competition binding assay: the assay was carried out in a 200 μL system (96-well plate from Agilent) with 100 μL of cell membrane. The concentration of ^3H-flunitazepam (from PerkinElmer, lot: NET567250 UC) was 1 nM and the concentration of test compound was in the range 1×10^−5-10^−6 M. Flumazenil (from Tocris; lot: 1318) was used as a control. 1 μL of 2 mM flumazenil (final concentration 10 μM) was added to the Low signal control well (Low control, LC) and 1 μL of DMSO (from Sigma aldrich, lot: 472301) was added to the High signal control well (High control, HC). The final target membrane protein concentration was 5 μg/well. All test compound sample stocks were 10 mM DMSO solutions. The working concentration of the samples is to dilute all samples with DMSO to 0.2 mM, and then perform 4-fold continuous gradient dilution for a total of 8 concentration gradients. The 96-well plate was sealed with a plate sealing membrane and then incubated on a shaker at room temperature for 1 hour. Meanwhile, GF/C filter plate was soaked with a plate soaking buffer (0.3% PEI, polyethyleneimine, purchased from Sigma aldrich, model: P314, stored at 4° C.) for at least 0.5 hours. After completion of binding incubation, the cells were collected with a cell collector onto the GF/C filter plate and washed four times with a plate washing buffer (50 mM Tris-HCl, pH 7.4, stored at 4° C.). […]

`Cc1onc(-c2ccc(F)cc2)c1COc1ccc(N2CCn3c(C)nnc3C2)nn1` [Compound 34, 3-(4-fluorophenyl)-5-methyl-4-(((6-(3-methyl-5,6-dihydro-[1,2,4]triazolo[4,3-a]pyrazin-7(8H)-yl)pyridazin-3-yl)oxy)methyl)isoxazole]: the inhibition at 0.1 µM at α5-GABAA receptor is 39%. In experiment [1], this compound gave a Ki of 2.44 nM.

For `Cc1onc(-c2ccc(F)cc2)c1COc1ccc(-c2nnn3c2COCC3)nn1` [Compound 11, 3-(6-((3-(4-fluorophenyl)-5-methylisoxazol-4-yl)methoxy)pyridazin-3-yl)-6,7-dihydro-4H-[1,2,3]triazolo[5,1-c][1,4]oxazine], at α5-GABAA receptor, the inhibition at 0.1 µM was 45%. Moreover, affinity in experiment [1] was put at a Ki of 0.6 nM.

Regarding `Cc1onc(-c2ccc(F)cc2)c1COc1ccc(-c2nnn3c2COCC3)cn1` [Compound 1, 3-(6-((3-(4-fluorophenyl)-5-methylisoxazol-4-yl)methoxy)pyridin-3-yl)-6,7-dihydro-4H-[1,2,3]triazolo[5,1-c][1,4]oxazine], at α5-GABAA receptor, the inhibition at 0.1 µM came out at 38%. In addition, the affinity in experiment [1] corresponds to a Ki of 1.2 nM.

Consider `Cc1onc(-c2ccc(F)cc2)c1COc1ccc(-c2nnc3n2CCC3)nn1` [Compound 22, 4-(((6-(6,7-dihydro-5H-pyrrolo[2,1-c][1,2,4]triazol-3-yl)pyridazin-3-yl)oxy)methyl)-3-(4-fluorophenyl)-5-methylisoxazole], for which, at α5-GABAA receptor, the inhibition at 0.1 µM is 50%. This compound also yielded an inhibitory constant (Ki) in experiment [1] of 0.54 nM.

As for `CCN1CCn2c(nnc2-c2ccc(OCc3c(-c4ccc(F)cc4)noc3C)nc2)C1=O` [Compound 13, 7-ethyl-3-(6-((3-(4-fluorophenyl)-5-methylisoxazol-4-yl)methoxy)pyridin-3-yl)-6,7-dihydro-[1,2,4]triazolo[4,3-a]pyrazin-8(5H)-one], at α5-GABAA receptor, the inhibition at 0.1 µM is 43%. The affinity in experiment [1] corresponds to a Ki of 12.5 nM.

With `Cc1onc(-c2ccc(F)cc2)c1COc1ccc(-c2nnc3n2CCS(=O)(=O)C3)nn1` [Compound 29, 3-(6-((3-(4-fluorophenyl)-5-methylisoxazol-4-yl)methoxy)pyridazin-3-yl)-5,6-dihydro-8H-[1,2,4]triazolo[3,4-c][1,4]thiazine 7,7-dioxide], the inhibition at 0.1 µM on α5-GABAA receptor is 45%. Besides, the Ki in experiment [1] is 0.77 nM.

As to `Cc1onc(-c2ccc(F)cc2)c1COc1ccc(-c2nnc3n2CCCO3)cn1` [Compound 25, 3-(6-((3-(4-fluorophenyl)-5-methylisoxazol-4-yl)methoxy)pyridin-3-yl)-6,7-dihydro-5H-[1,2,4]triazolo[3,4-b][1,3]oxazine], at α5-GABAA receptor, the inhibition at 0.1 µM amounted to 50%. In addition, the affinity in experiment [1], expressed as Ki, was 22.1 nM.

For `Cc1onc(-c2ccc(F)cc2)c1COc1ccc(-c2ncc3n2CCOC3)cn1` [Compound 28, 3-(6-((3-(4-fluorophenyl)-5-methylisoxazol-4-yl)methoxy)pyridin-3-yl)-5,6-dihydro-8H-imidazo[5,1-c][1,4]oxazine], the inhibition at 0.1 µM at α5-GABAA receptor was 42%. In addition, in experiment [1], the Ki stood at 32.9 nM.

Turning to `Cc1onc(-c2ccc(F)cc2)c1COc1ccc(-c2nnc3n2CCN(C)C3=O)nn1` [Compound 14, 3-(6-((3-(4-fluorophenyl)-5-methylisoxazol-4-yl)methoxy)pyridazin-3-yl)-7-methyl-6,7-dihydro-[1,2,4]triazolo[4,3-a]pyrazin-8(5H)-one], the inhibition at 0.1 µM on α5-GABAA receptor came out at 49%. Moreover, the affinity in experiment [1], expressed as Ki, was 2.5 nM.

As to `Cc1onc(-c2ccc(F)cc2)c1COc1ccc(-c2cc3n(c(=O)n2)CC24CC(CN32)C4)cn1` [Compound 39, 3-(6-((3-(4-fluorophenyl)-5-methylisoxazol-4-yl)methoxy)pyridin-3-yl)-7,8-dihydro-1H,6H,9H-7,8a-methanopyrrolo[1′,2′:3,4]imidazo[1,2-c]pyrimidin-1-one], on α5-GABAA receptor, the inhibition at 0.1 µM is 44%. The same compound yielded an inhibition constant Ki in experiment [1] of 6.31 nM.

For `Cc1onc(-c2ccc(F)cc2)c1COc1cnc(N2CCN3CCNC(=O)[C@@H]3C2)cn1` [Compound 6, (S)-8-(5-((3-(4-fluorophenyl)-5-methylisoxazol-4-yl)methoxy)pyrazin-2-yl) hexahydro-2H-pyrazino[1,2-a]pyrazin-1 (6H)-one], the inhibition at 0.1 µM at α5-GABAA receptor was 16%. Further, in experiment [1], the Ki was found to be 103 nM.
